Consider 2 molecules from ChEMBL document CHEMBL6087398, “Natural phenol carbamates: Selective BuChE/FAAH dual inhibitors show neuroprotection in an Alzheimer's disease mouse model” (Eur J Med Chem, 2025).

Active and inactive are the calls of the source. The rule behind the calls is not given here.

The nature of data set [1]: in vitro. The following applies: PAMPA, pH 7.4.
Description: Permeability of the compound in PBS at pH 7.4 incubated for 18 hrs by PAMPA-BBB assay
Data set [2] deals with BV-2. As to the kind of experiment: Immunomodulatory activity in mouse BV-2 cells assessed as decrease in LPS induced IL-1 beta release incubated for 24 hrs by Western blotting analysis. The following applies: dose 0-10 µM. In kind it is functional, cell-based.
The target of data set [3] is T1, Cholinesterase (Homo sapiens, UniProt P06276). The data set can be described thus: Binding affinity to human BuChE (unknown origin) assessed as carbamolyation rate at 100 to 1000 nM incubated for 60 mins. Particulars: dose 100-1000 nM.
Data set [4] concerns BV-2. The data set can be described thus: Induction of microglial polarization to M2 phenotype in mouse BV-2 cells assessed as increase in Arg-1 expression incubated for 24 hrs by Western blotting analysis. Format: functional, cell-based. Particulars: dose 0-10 µM.
For data set [5], the system named is PC-12. The data set can be described thus: Neuroprotective activity against H2O2 induced rat PC12 cells assessed as increase in cell viability at 50 uM measured after 24 hrs by MTT assay relative to control. In kind it is functional.
Data set [6] concerns the target Cholinesterase (Equus caballus, UniProt P81908). As to the kind of experiment: Inhibition of equine BuChE using butyrylthiocholine iodide as substrate preincubated with enzyme for 20 mins followed by substrate addition and measured after 20 mins by Ellman's method.
The subject of data set [7] is BV-2. As to the kind of experiment: Induction of microglial polarization to M2 phenotype in mouse BV-2 cells assessed as increase in Arg-1 activity incubated for 24 hrs by Western blotting analysis. Format: functional, cell-based.
Data set [8] can be described thus: Toxicity in amyloid beta (1 to 42 residues) induced ICR male mouse model assessed as hepatocyte fatty degeneration at 10 mg/kg, po administered for 12 days and measured on day 15 by H and E staining based immunohistochemistry analysis. Particulars: in vivo, 288 h, time 12 day. Format: organism-based.
The subject of data set [9] is Mus musculus. As to the kind of experiment: Antialzheimer activity against amyloid beta (1 to 42 residues) induced ICR male mouse model assessed as reduction in amyloid beta (1 to 42 residues) at 10 mg/kg, po administered for 12 days by ELISA relative to control. In kind it is functional. The arrangement: scale not given: the % may be the effect or the level left. Particulars: time 12 day.

The target in data set [10] is T1, Cholinesterase. As to the kind of experiment: Binding affinity to human BuChE (unknown origin) assessed as overall carbamolyation rate at 100 to 1000 nM incubated for 60 mins.
The subject of data set [11] is L02. As to the kind of experiment: Cytotoxicity against human L02 cells assessed as reduction in cell viability at 6.25 to 50 uM incubated for 24 hrs by MTT assay relative to control. Format: toxicity, cell-based. The following applies: l02, 24 h, dose 6.25-50 µM.
The subject of data set [12] is L02. As to the kind of experiment: Cytotoxicity against human L02 cells assessed as reduction in cell viability at 12.5 uM incubated for 24 hrs by MTT assay. In kind it is toxicity, cell-based. The following applies: l02, 24 h.
A short description of data set [13]: Neurotoxicity against mouse BV-2 cells assessed as reduction in cell viability at 25 to 50 uM incubated for 24 hrs by MTT assay. Format: toxicity, cell-based. The following applies: bv-2, 24 h, dose 25-50 µM.
Data set [14] addresses T1, Cholinesterase. The data set can be described thus: Binding affinity to human BuChE (unknown origin) assessed as equilibrium dissociation constant at 100 to 1000 nM incubated for 60 mins.
Data set [15] deals with PC-12. As to the kind of experiment: Neuroprotective activity against H2O2 induced rat PC12 cells assessed as cell viability measured after 24 hrs by MTT assay. Particulars: dose 6.25-50 µM. In kind it is functional, cell-based.
A short description of data set [16]: Neurotoxicity against mouse BV-2 cells assessed as improvement in cell morphological changes at 20 uM by inverted microscopic analysis. In kind it is toxicity, cell-based. The following applies: bv-2, 20 µM.
Data set [17] concerns Mus musculus. As to the kind of experiment: Antialzheimer activity against amyloid beta (1 to 42 residues) induced ICR male mouse model assessed as increase in neuron density in hippocampal CA1 region at 10 mg/kg, po administered for 12 days and measured on day 15 by H and E staining based analysis. In kind it is functional, organism-based. Particulars: time 12.0 day.
In data set [18] the test system is Mus musculus. As to the kind of experiment: Antialzheimer activity against amyloid beta (1 to 42 residues) induced ICR male mouse model assessed as prevention in cognitive dysfunction at 10 mg/kg, po administered for 12 days by Morris water maze test. In kind it is functional, organism-based. The following applies: time 12.0 day.
Data set [19] is described as follows: Toxicity in amyloid beta (1 to 42 residues) induced ICR male mouse model assessed as pericentral necrosis at 10 mg/kg, po administered for 12 days and measured on day 15 by H and E staining based immunohistochemistry analysis. Particulars: in vivo, 288 h, time 12 day. Format: organism-based.
The target in data set [20] is T1, Cholinesterase. As to the kind of experiment: Binding affinity to human BuChE (unknown origin) assessed as decarbamolyation rate at 100 to 1000 nM incubated for 60 mins. The following applies: dose 100-1000 nM.
Data set [21] has as its system BV-2. As to the kind of experiment: Induction of microglial polarization to M2 phenotype in mouse BV-2 cells assessed as reduction in iNOS activity incubated for 24 hrs by Western blotting analysis. In kind it is functional, cell-based.
Data set [22] has as its target T1, Cholinesterase. The data set can be described thus: Inhibition of human BuChE using butyrylthiocholine iodide as substrate incubated for 5 mins.
The nature of data set [23]: Toxicity in amyloid beta (1 to 42 residues) induced ICR male mouse model assessed as effect on body weight at 10 mg/kg, po administered for 12 days and measured daily. Particulars: in vivo, 288 h, time 12 day. In kind it is organism-based.
For data set [24], the system named is BV-2. The data set can be described thus: Immunomodulatory activity in mouse BV-2 cells assessed as decrease in LPS induced iNOS expression at 10 uM incubated for 24 hrs by Western blotting analysis. Format: functional, cell-based.
Data set [25] has as its target Acetylcholinesterase (Homo sapiens) (UniProt P22303). The data set can be described thus: Inhibition of recombinant human AChE using acetylthiocholine iodide as substrate incubated for 5 mins relative to control.
Data set [26] has as its system BV-2. The data set can be described thus: Immunomodulatory activity in mouse BV-2 cells assessed as decrease in LPS induced IL-1 beta release at 10 uM incubated for 24 hrs by Western blotting analysis. Format: functional, cell-based.
Data set [27] concerns BV-2. As to the kind of experiment: Induction of microglial polarization to M2 phenotype in mouse BV-2 cells assessed as increase in CD206 expression incubated for 24 hrs by Western blotting analysis. Format: functional, cell-based. Particulars: dose 0-10 µM.
Data set [28] concerns the target T2, Fatty-acid amide hydrolase 1 (Homo sapiens, UniProt O00519).
T2 sequence (O00519 whole entry): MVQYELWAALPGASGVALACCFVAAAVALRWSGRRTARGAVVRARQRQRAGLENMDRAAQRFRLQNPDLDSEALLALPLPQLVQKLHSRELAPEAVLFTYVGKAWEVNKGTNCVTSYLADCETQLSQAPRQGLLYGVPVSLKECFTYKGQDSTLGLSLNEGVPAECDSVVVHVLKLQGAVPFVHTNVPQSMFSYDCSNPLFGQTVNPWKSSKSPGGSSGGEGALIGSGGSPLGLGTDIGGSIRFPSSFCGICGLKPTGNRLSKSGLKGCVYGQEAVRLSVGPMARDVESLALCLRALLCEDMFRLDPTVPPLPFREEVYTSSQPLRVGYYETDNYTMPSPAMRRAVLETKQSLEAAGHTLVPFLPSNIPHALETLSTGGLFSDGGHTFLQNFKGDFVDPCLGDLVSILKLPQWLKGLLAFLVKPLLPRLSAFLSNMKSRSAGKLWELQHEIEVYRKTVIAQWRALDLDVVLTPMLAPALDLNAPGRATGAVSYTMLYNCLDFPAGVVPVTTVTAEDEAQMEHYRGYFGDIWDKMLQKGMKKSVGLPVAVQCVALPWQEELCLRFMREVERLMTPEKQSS
The data set can be described thus: Inhibition of human FAAH using arachidonoyl amide as substrate incubated for 30 mins by fluorescence-based cayman assay.

The target of data set [29] is Acetylcholinesterase (Electrophorus electricus) (UniProt O42275). As to the kind of experiment: Inhibition of electric eel AChE using acetylthiocholine iodide as substrate preincubated with enzyme for 20 mins followed by substrate addition and measured after 20 mins by Ellman's method. The following applies: time 40.0 min. Set-up: concentration or dose not given beside the values.

In data set [30] the target is T2, Fatty-acid amide hydrolase 1. The data set can be described thus: Inhibition of human FAAH.

T1 sequence (P06276 whole entry): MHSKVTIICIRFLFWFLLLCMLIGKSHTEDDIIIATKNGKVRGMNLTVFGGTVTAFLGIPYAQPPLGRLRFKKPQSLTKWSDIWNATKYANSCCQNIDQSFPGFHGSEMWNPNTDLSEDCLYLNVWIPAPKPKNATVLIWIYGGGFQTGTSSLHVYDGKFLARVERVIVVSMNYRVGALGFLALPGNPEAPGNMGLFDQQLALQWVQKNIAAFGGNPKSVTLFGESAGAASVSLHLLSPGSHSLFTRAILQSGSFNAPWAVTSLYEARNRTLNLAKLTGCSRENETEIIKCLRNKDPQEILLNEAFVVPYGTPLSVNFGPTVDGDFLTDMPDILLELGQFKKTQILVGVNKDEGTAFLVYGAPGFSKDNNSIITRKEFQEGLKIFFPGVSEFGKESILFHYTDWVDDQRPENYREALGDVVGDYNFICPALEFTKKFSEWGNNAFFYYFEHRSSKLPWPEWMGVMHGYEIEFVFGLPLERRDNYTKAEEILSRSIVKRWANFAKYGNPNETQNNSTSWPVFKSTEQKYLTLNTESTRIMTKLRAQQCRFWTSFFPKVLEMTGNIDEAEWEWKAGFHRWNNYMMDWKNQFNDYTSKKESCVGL
Chain of Acetylcholinesterase (Electrophorus electricus) (O42275 24-633 limits assumed): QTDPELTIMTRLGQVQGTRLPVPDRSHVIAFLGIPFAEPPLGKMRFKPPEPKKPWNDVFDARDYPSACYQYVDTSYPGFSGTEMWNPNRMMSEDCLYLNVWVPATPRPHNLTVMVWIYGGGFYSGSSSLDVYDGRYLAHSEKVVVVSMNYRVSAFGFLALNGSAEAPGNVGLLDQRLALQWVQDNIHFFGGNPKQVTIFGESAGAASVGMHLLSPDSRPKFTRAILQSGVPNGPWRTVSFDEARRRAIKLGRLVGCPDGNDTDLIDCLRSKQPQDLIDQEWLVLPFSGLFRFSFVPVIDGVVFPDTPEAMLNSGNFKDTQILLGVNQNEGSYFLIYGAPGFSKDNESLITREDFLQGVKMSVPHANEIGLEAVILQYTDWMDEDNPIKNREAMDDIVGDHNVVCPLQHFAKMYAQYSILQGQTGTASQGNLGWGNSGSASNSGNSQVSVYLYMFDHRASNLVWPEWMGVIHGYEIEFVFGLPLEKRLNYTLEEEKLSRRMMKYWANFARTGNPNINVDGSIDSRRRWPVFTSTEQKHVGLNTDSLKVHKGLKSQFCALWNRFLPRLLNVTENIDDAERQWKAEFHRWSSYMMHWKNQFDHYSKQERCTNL
Chain of Acetylcholinesterase (Homo sapiens) (P22303 whole entry): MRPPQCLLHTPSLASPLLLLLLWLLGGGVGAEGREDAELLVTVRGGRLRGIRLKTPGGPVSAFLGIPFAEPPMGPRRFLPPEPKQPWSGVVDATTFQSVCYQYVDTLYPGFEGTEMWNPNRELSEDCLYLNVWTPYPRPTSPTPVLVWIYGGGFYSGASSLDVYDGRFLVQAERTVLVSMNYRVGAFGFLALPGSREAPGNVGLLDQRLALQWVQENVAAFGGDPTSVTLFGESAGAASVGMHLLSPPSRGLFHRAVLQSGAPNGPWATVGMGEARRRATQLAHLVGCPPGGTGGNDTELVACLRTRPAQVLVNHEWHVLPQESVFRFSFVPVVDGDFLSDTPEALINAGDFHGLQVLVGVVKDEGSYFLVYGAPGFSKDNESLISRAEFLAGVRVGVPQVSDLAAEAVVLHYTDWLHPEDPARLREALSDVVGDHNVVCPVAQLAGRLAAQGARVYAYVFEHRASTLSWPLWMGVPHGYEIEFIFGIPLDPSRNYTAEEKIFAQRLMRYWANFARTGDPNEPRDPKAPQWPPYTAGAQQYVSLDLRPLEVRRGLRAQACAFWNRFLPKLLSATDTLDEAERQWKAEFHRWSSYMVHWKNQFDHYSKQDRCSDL
Chain of Cholinesterase (Equus caballus, UniProt P81908) (P81908 whole entry): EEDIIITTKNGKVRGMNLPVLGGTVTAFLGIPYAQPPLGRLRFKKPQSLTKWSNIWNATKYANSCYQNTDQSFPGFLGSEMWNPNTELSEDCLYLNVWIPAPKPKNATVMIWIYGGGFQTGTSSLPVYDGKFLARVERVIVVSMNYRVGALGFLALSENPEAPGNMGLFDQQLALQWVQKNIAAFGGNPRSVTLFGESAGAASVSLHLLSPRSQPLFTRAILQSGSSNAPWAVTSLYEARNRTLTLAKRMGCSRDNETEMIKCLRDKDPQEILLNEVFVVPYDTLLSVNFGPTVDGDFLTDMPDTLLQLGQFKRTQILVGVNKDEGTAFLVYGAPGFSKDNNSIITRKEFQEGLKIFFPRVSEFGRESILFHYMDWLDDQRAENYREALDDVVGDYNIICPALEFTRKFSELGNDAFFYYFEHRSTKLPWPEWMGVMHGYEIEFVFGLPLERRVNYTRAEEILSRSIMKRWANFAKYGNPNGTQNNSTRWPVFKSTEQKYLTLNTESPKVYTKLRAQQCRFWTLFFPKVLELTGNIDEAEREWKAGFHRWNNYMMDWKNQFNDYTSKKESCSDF

`COc1ccc(C(C)=O)c(OC(=O)N(C)Cc2ccc(F)cc2)c1` had a Papp at 18 h in [1] of 16.4 ×10⁻⁶ cm/s. The Activity entry in [2] is “Dose-dependent-effect”; in data set [4], “Dose-dependent-effect”; in data set [5], 43%; in [8], “Non-toxic”; in data set [9] it was 8.8%; in [11], 88.6%. The Activity entry in data set [12] was “Non-toxic”; in [13], “Non-toxic”; in [15], “Dose-dependent-effect”; in data set [16], “Non-toxic”; in data set [19], “Non-toxic”; in data set [23] it was “Non-toxic”. Further, in [27], the Activity entry is “Dose-dependent-effect”. The K in data set [3] was determined as 2.27 min⁻¹; in [20] it was 2.83 min⁻¹. Further, the IC50 in [6] amounted to 12 nM; in data set [22], 81 nM; in data set [28], 400 nM. The outcome in [7], in data set [17], in [18], in data set [21], in data set [24] and in [26] was Active. Also, in [10], the Ki is reported as 2.8 10^-3/uM/min. The Kd in data set [14] is 2110 nM. In addition, the figures for the inhibition in data set [25] and in data set [29] were 10.4% and 53%, respectively.
In turn, `CN(C(=O)n1cnc(-c2ccc[n+]([O-])c2)c1)C1CCCCC1` had an IC50 in data set [30] of 7500 nM.
